In patent US10973906B2, “Therapeutic peptides and vaccines” (priority 2005, dated 2021):
Where a SMILES comes first, the peptide text is derived from it.

B1: MIP-1β: CCR5 selective chemokine ligand (protein)
chain: APMGSDPPTACCFSYTARKLPRNFVVDYYETSSLCSQPAVVFQTKRSKQVCADPSESWVQEYVYDLELN

Experiments:
CCR5 [1] = target: T1, CCR5 (Homo sapiens, UniProt P51681); experiment: biochemical; type: binding
T1 construct: expressed in transfected cells; host or cells: ChfTh-CCR5 expressing cells (so in the source)
Procedure: (§1) The antiviral assays are described in detail in the prior art (Ruff et al., 2001, Antiviral Res, 52, 63-75), which is hereby incorporated by reference, and will be here described only briefly.
(§2) We prepared a novel FITC-labeled tracer from soluble gp120 proteins (25 μg/ml) using a Fluorescent Protein labeling kit (Roche Diagnostics GmBh). Binding assays were performed in binding buffer containing 50mM HEPES (Gibco), pH=7.4, 5 mM MgCl2, 1 mM CaCl2.6H20 (Sigma), 5% BSA (Sigma) and 0.1% NaN3, final volume 100 μl. Binding was carried out for 1 h at 37° C. in 96-well filter plates (Millipore) using several CCR5 expressing lines, as indicated. Unbound labeled proteins were removed by rapid vacuum filtration and washing using a 96-well plate manifold. Filters were counted with a fluorescent plate reader (Hewlett Packard) at 495/530 nm. Non-specific binding was determined in the absence of sCD4 and was subtracted from the gp120-FITC binding in presence of 100 nM sCD4 (total binding).

CCR5 [2] = target: T1, CCR5; type: binding
Procedure: as §1, §2
These studies are illustrated in FIG. 4. Total specific binding was defined as the difference in binding of FITIC-gp120 with or without added sCD4 (100 nM).
Data shown (panels A-C) are the mean and […] of three experiments, each with triplicate determinations. Analyses were performed by PRISM.

T1 sequence (P51681 whole entry): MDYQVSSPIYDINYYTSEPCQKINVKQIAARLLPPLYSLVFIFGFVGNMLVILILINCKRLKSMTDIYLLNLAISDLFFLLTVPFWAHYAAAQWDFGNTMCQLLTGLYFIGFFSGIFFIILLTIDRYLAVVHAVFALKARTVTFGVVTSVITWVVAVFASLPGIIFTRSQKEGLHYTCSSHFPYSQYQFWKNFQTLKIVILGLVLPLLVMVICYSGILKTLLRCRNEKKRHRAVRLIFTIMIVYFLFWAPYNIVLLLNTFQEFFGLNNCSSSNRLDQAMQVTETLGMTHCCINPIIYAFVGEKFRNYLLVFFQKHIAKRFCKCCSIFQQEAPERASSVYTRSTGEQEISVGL

Row | Molecule | EC50 (CCR5 [1]) | inhibition of binding of gp120 proteins Bal and CM235 (CCR5 [2]; 10 nM) | inhibition of binding of gp120BaL/sCD4 to CCR5 (CCR5 [2]; gp120BaL/sCD4, Cf2Th/synR5 cells)
1 | N=C(N)NCCC[C@H](NC(=O)[C@H](Cc1ccc(O)cc1)NC(=O)[C@H](CCCNC(=N)N)NC(=O)[C@H](CC(N)=O)NC(=O)[C@@H](N)CC(N)=O)C(=O)O [NNRYR] (H-NNRYR-OH) | 0.2 nM |  | 
2 | N=C(N)NCCC[C@H](NC(=O)[C@H](Cc1ccc(O)cc1)NC(=O)[C@H](CCC(=O)O)NC(=O)[C@H](CO)NC(=O)[C@@H](N)CC(N)=O)C(=O)O [NSEYR] (H-NSEYR-OH) | 0.08 nM |  | 
3 | NC(=O)C[C@H](NC(=O)[C@H](CO)NC(=O)[C@@H](N)CC(N)=O)C(=O)N[C@@H](Cc1ccc(O)cc1)C(=O)N[C@@H](CO)C(=O)O [NSNYS] (H-NSNYS-OH) | 0.5 nM |  | 
4 | N=C(N)NCCC[C@H](NC(=O)[C@H](Cc1ccc(O)cc1)NC(=O)[C@H](CO)NC(=O)[C@H](CO)NC(=O)[C@@H](N)CC(N)=O)C(=O)O [NSSYR] (H-NSSYR-OH) | 0.04 nM |  | 
5 | C[C@@H](O)[C@H](NC(=O)[C@H](Cc1ccc(O)cc1)NC(=O)[C@H](CO)NC(=O)[C@H](CO)NC(=O)[C@@H](N)CC(N)=O)C(=O)O [NSSYT] (H-NSSYT-OH) | 0.2 nM |  | 
6 | C[C@@H](O)[C@H](NC(=O)[C@@H](N)CC(N)=O)C(=O)N[C@@H](CO)C(=O)N[C@@H](Cc1ccc(O)cc1)C(=O)N[C@@H](CCCNC(=N)N)C(=O)O [NTSYR] (H-NTSYR-OH) | 0.1 nM |  | 
7 | N=C(N)NCCC[C@H](NC(=O)[C@H](Cc1ccc(O)cc1)NC(=O)[C@H](CCC(=O)O)NC(=O)[C@H](CO)NC(=O)[C@@H](N)CO)C(=O)O [SSEYR] (H-SSEYR-OH) | 0.3 nM |  | 
8 | CC[C@H](C)[C@H](NC(=O)[C@@H](N)[C@@H](C)O)C(=O)N[C@@H](CO)C(=O)N[C@@H](Cc1ccc(O)cc1)C(=O)N[C@@H](CCCNC(=N)N)C(=O)O [TISYR] (H-TISYR-OH) | 0.4 nM |  | 
9 | C[C@@H](O)[C@H](N)C(=O)N[C@@H](CO)C(=O)N[C@@H](CC(N)=O)C(=O)N[C@@H](Cc1ccc(O)cc1)C(=O)N[C@@H](CO)C(=O)O [TSNYS] (H-TSNYS-OH) | 0.2 nM |  | 
10 | C[C@@H](O)[C@H](N)C(=O)N[C@H](C(=O)N[C@@H](CO)C(=O)N[C@@H](Cc1ccc(O)cc1)C(=O)N[C@@H](CCCNC(=N)N)C(=O)O)[C@@H](C)O [TTSYR] (H-TTSYR-OH) | 0.1 nM |  | 
11 | C[C@@H](O)[C@H](N)C(=O)N[C@H](C(=O)N[C@@H](CO)C(=O)N[C@@H](Cc1ccc(O)cc1)C(=O)N[C@H](C(=O)O)[C@@H](C)O)[C@@H](C)O [TTSYT] (H-TTSYT-OH) | 0.05 nM |  | 
12 | N=C(N)NCCC[C@H](NC(=O)[C@H](Cc1ccc(O)cc1)NC(=O)[C@H](CO)NC(=O)[C@H](CO)NC(=O)[C@@H](N)Cc1ccc(O)cc1)C(=O)O [YSSYR] (H-YSSYR-OH) | 0.6 nM |  | 
13 | B1 |  | inhibited | completely inhibited
